# Data published in patent US20060130172A1, “Gene encoding resistance to acetolactate synthase-inhibiting herbicides” (priority 2003, published 2006).
# Key:
# R11-AMACH smooth pigweed = assay: Greenhouse screen of ALS-inhibiting herbicides on resistant smooth pigweed biotype; assay type: in vivo, Amaranthus hybridus L.; conditions: 3 WAT; for Biomass Reduction: compared to untreated plant biomass; for Biomass: plant dry weight; for Visual Control: scale 0-99%
# Text: (§1) Seeds from a smooth pigweed (Aniaranthus hybridus L.) population (R11-AMACH) were collected from a field in southeastern Pennsylvania where extreme ALS-inhibitor herbicide selection pressure was imposed over a several year period within continuous soybean production. R11-AMACH was selected naturally with ALS-inhibiting herbicides representative of the SU, IMI, and TP herbicide chemistries.
# (§2) To establish levels and patterns of ALS resistance, R11-AMACH and an ALS susceptible smooth pigweed biotype (S-AMACH) were screened in the greenhouse with various rates of the ALS-inhibiting herbicides, chlorimuron (SU), thifensulfuron (SU), imazethapyr (IMI), pyrithiobac (POB), and cloransulam-methyl (TP). Rates evaluated were based on a log10 scale that included 0, 1/100×, 1/10×, 1×, 10×, and 100×, where 1× corresponds to the normal use rate in the field. R11-AMACH responded differently to the rate increase as compared to S-AMACH. […] Visual control, height, biomass, and biomass reduction are presented separately for chlorimuron (Table 3), thifensulfuron (Table 4), imazethapyr (Table 5), pyrithiobac (Table 6), and cloransulam (Table 7). Evaluations and measurements were recorded 3 weeks after herbicide treatment (WAT). Visual control was based on a scale of 0-99%, where 0% represents no control and 99% represents complete control. Biomass represents plant dry weights recorded several days after plants were harvested. Biomass reduction was calculated based on the amount of biomass reduced by herbicide treatment compared to the untreated plant biomass.
# S-AMACH smooth pigweed = assay: Greenhouse screen of ALS-inhibiting herbicides on susceptible smooth pigweed biotype; assay type: in vivo, Amaranthus hybridus L.; conditions: 3 WAT; for Biomass Reduction: compared to untreated plant biomass; for Biomass: plant dry weight; for Visual Control: scale 0-99%
# Text: as §1, §2
# [1] = rate 1/100× (1× = normal use rate in the field)
SMILES,Height (R11-AMACH smooth pigweed; rate 1/10×),Biomass Reduction (R11-AMACH smooth pigweed; rate 1/10×),Biomass (R11-AMACH smooth pigweed; rate 1/10×),Visual Control (R11-AMACH smooth pigweed; rate 1/10×),Visual Control (R11-AMACH smooth pigweed; [1]),Height (R11-AMACH smooth pigweed; rate 1/100×),Biomass Reduction (R11-AMACH smooth pigweed; rate 1/100×),Biomass (R11-AMACH smooth pigweed; rate 1/100×),Visual Control (R11-AMACH smooth pigweed; rate 1× (normal use rate)),Height (R11-AMACH smooth pigweed; rate 1×),Biomass Reduction (R11-AMACH smooth pigweed; rate 1×),Biomass (R11-AMACH smooth pigweed; rate 1×),Height (R11-AMACH smooth pigweed; rate 10×),Biomass Reduction (R11-AMACH smooth pigweed; rate 10×),Biomass (R11-AMACH smooth pigweed; rate 10×),Visual Control (R11-AMACH smooth pigweed; rate 10×),Height (R11-AMACH smooth pigweed; rate 100×),Biomass Reduction (R11-AMACH smooth pigweed; rate 100×),Biomass (R11-AMACH smooth pigweed; rate 100×),Visual Control (R11-AMACH smooth pigweed; rate 100×),also measured
CCOc1nc(F)cc2nc(S(=O)(=O)Nc3c(Cl)cccc3C(=O)OC)nn12 [cloransulammethyl],34.5 cm,24.7%,8.16 g,23%,0%,47.8 cm,0.5%,10.78 g,16%,37.6 cm,30.8%,7.49 g,32.0 cm,40.5%,6.44 g,39%,12.2 cm,75.3%,2.68 g,63%,Height (S-AMACH smooth pigweed; rate 1/10×): 3.6 cm; Biomass Reduction (S-AMACH smooth pigweed; rate 1/10×): 97.1%; Biomass (S-AMACH smooth pigweed; rate 1/10×): 0.25 g; Visual Control (S-AMACH smooth pigweed; rate 1/10×): 91%; Height (S-AMACH smooth pigweed; rate 1/100×): 0.7 cm; Biomass Reduction (S-AMACH smooth pigweed; rate 1/100×): 99.8%; Biomass (S-AMACH smooth pigweed; rate 1/100×): 0.02 g; Visual Control (S-AMACH smooth pigweed; rate 1/100×): 97%; Visual Control (S-AMACH smooth pigweed; rate 1× (normal use rate)): 96%; Height (S-AMACH smooth pigweed; rate 1×): 1.3 cm; Biomass Reduction (S-AMACH smooth pigweed; rate 1×): 99.1%; Biomass (S-AMACH smooth pigweed; rate 1×): 0.08 g; Height (S-AMACH smooth pigweed; rate 10×): 0.0 cm; Biomass Reduction (S-AMACH smooth pigweed; rate 10×): 100.0%; Biomass (S-AMACH smooth pigweed; rate 10×): 0.00 g; Visual Control (S-AMACH smooth pigweed; rate 10×): 99%; Height (S-AMACH smooth pigweed; rate 100×): 0.0 cm; Biomass Reduction (S-AMACH smooth pigweed; rate 100×): 100.0%; Biomass (S-AMACH smooth pigweed; rate 100×): 0.00 g; Visual Control (S-AMACH smooth pigweed; rate 100×): 99%
"CCc1cnc(C2=NC(C)(C(C)C)C(=O)N2)c(C(=O)O)c1 (centres unmarked) [imazethapyr, 2-[4,5-dihydro-4-methyl-4-(1-methylethyl)-5-oxo-1H-imidazol-2-yl]-5-ethyl-3-pyridinecarboxylic acid]",28.0 cm,21.1%,3.00 g,9%,2%,32.8 cm,−8.2%,4.11 g,16%,20.3 cm,31.0%,2.62 g,6.8 cm,86.8%,0.50 g,62%,3.3 cm,96.1%,0.15 g,95%,Height (S-AMACH smooth pigweed; rate 1/10×): 10.3 cm; Biomass Reduction (S-AMACH smooth pigweed; rate 1/10×): 81.6%; Biomass (S-AMACH smooth pigweed; rate 1/10×): 0.63 g; Visual Control (S-AMACH smooth pigweed; rate 1/10×): 58%; Height (S-AMACH smooth pigweed; rate 1/100×): 25.3 cm; Biomass Reduction (S-AMACH smooth pigweed; rate 1/100×): 42.3%; Biomass (S-AMACH smooth pigweed; rate 1/100×): 1.98 g; Visual Control (S-AMACH smooth pigweed; rate 1/100×): 12%; Visual Control (S-AMACH smooth pigweed; rate 1× (normal use rate)): 97%; Height (S-AMACH smooth pigweed; rate 1×): 2.3 cm; Biomass Reduction (S-AMACH smooth pigweed; rate 1×): 98.3%; Biomass (S-AMACH smooth pigweed; rate 1×): 0.06 g; Height (S-AMACH smooth pigweed; rate 10×): 0.3 cm; Biomass Reduction (S-AMACH smooth pigweed; rate 10×): 97.1%; Biomass (S-AMACH smooth pigweed; rate 10×): 0.10 g; Visual Control (S-AMACH smooth pigweed; rate 10×): 99%; Height (S-AMACH smooth pigweed; rate 100×): 2.3 cm; Biomass Reduction (S-AMACH smooth pigweed; rate 100×): 98.3%; Biomass (S-AMACH smooth pigweed; rate 100×): 0.06 g; Visual Control (S-AMACH smooth pigweed; rate 100×): 95%
"COc1nc(C)nc(NC(=O)NS(=O)(=O)c2ccsc2C(=O)O)n1 [thifensulfuron, 3-[[[[(4-methoxy-6-methyl-1,3,5-triazin-2-yl)amino]carbonyl]-amino]sulfonyl]-2-thiophenecarboxylic acid]",32.5 cm,−17.1%,4.45 g,9%,4%,36.0 cm,−10.8%,4.21 g,22%,23.0 cm,8.4%,3.48 g,15.8 cm,40.8%,2.25 g,38%,6.8 cm,84.7%,0.58 g,64%,Height (S-AMACH smooth pigweed; rate 1/10×): 11.0 cm; Biomass Reduction (S-AMACH smooth pigweed; rate 1/10×): 75.2%; Biomass (S-AMACH smooth pigweed; rate 1/10×): 0.85 g; Visual Control (S-AMACH smooth pigweed; rate 1/10×): 47%; Height (S-AMACH smooth pigweed; rate 1/100×): 25.0 cm; Biomass Reduction (S-AMACH smooth pigweed; rate 1/100×): 48.7%; Biomass (S-AMACH smooth pigweed; rate 1/100×): 1.76 g; Visual Control (S-AMACH smooth pigweed; rate 1/100×): 22%; Visual Control (S-AMACH smooth pigweed; rate 1× (normal use rate)): 98%; Height (S-AMACH smooth pigweed; rate 1×): 2.0 cm; Biomass Reduction (S-AMACH smooth pigweed; rate 1×): 98.0%; Biomass (S-AMACH smooth pigweed; rate 1×): 0.07 g; Height (S-AMACH smooth pigweed; rate 10×): 0.3 cm; Biomass Reduction (S-AMACH smooth pigweed; rate 10×): 98.8%; Biomass (S-AMACH smooth pigweed; rate 10×): 0.04 g; Visual Control (S-AMACH smooth pigweed; rate 10×): 99%; Height (S-AMACH smooth pigweed; rate 100×): 0.5 cm; Biomass Reduction (S-AMACH smooth pigweed; rate 100×): 99.1%; Biomass (S-AMACH smooth pigweed; rate 100×): 0.03 g; Visual Control (S-AMACH smooth pigweed; rate 100×): 99%
"COc1cc(OC)nc(Sc2cccc(Cl)c2C(=O)O)n1 [pyrithiobac, 2-chloro-6-[(4,6-dimethoxy-2-pyrimidinyl)thio]benzoic acid]",22.0 cm,36.3%,2.42 g,21%,7%,26.5 cm,26.8%,2.78 g,30%,17.8 cm,37.4%,2.38 g,11.0 cm,71.8%,1.07 g,48%,2.5 cm,98.2%,0.07 g,97%,Height (S-AMACH smooth pigweed; rate 1/10×): 8.8 cm; Biomass Reduction (S-AMACH smooth pigweed; rate 1/10×): 89.2%; Biomass (S-AMACH smooth pigweed; rate 1/10×): 0.37 g; Visual Control (S-AMACH smooth pigweed; rate 1/10×): 59%; Height (S-AMACH smooth pigweed; rate 1/100×): 21.8 cm; Biomass Reduction (S-AMACH smooth pigweed; rate 1/100×): 49.6%; Biomass (S-AMACH smooth pigweed; rate 1/100×): 1.73 g; Visual Control (S-AMACH smooth pigweed; rate 1/100×): 16%; Visual Control (S-AMACH smooth pigweed; rate 1× (normal use rate)): 99%; Height (S-AMACH smooth pigweed; rate 1×): 2.0 cm; Biomass Reduction (S-AMACH smooth pigweed; rate 1×): 98.0%; Biomass (S-AMACH smooth pigweed; rate 1×): 0.07 g; Height (S-AMACH smooth pigweed; rate 10×): 1.8 cm; Biomass Reduction (S-AMACH smooth pigweed; rate 10×): 96.5%; Biomass (S-AMACH smooth pigweed; rate 10×): 0.12 g; Visual Control (S-AMACH smooth pigweed; rate 10×): 99%; Height (S-AMACH smooth pigweed; rate 100×): 0.5 cm; Biomass Reduction (S-AMACH smooth pigweed; rate 100×): 98.8%; Biomass (S-AMACH smooth pigweed; rate 100×): 0.04 g; Visual Control (S-AMACH smooth pigweed; rate 100×): 99%
"COc1cc(Cl)nc(NC(=O)NS(=O)(=O)c2ccccc2C(=O)O)n1 [chlorimuron, 2-[[[[(4-chloro-6-methoxy-2-pyrimidinyl)-amino]carbonyl]amino]-sulfonyl]benzoic acid]",26.5 cm,3.7%,3.66 g,6%,5%,23.5 cm,10.0%,3.42 g,15%,21.8 cm,3.5%,3.67 g,23.5 cm,17.1%,3.15 g,18%,14.8 cm,56.8%,1.64 g,39%,Height (S-AMACH smooth pigweed; rate 1/10×): 14.3 cm; Biomass Reduction (S-AMACH smooth pigweed; rate 1/10×): 52.0%; Biomass (S-AMACH smooth pigweed; rate 1/10×): 1.65 g; Visual Control (S-AMACH smooth pigweed; rate 1/10×): 20%; Height (S-AMACH smooth pigweed; rate 1/100×): 27.8 cm; Biomass Reduction (S-AMACH smooth pigweed; rate 1/100×): 30.9%; Biomass (S-AMACH smooth pigweed; rate 1/100×): 2.37 g; Visual Control (S-AMACH smooth pigweed; rate 1/100×): 9%; Visual Control (S-AMACH smooth pigweed; rate 1× (normal use rate)): 81%; Height (S-AMACH smooth pigweed; rate 1×): 4.8 cm; Biomass Reduction (S-AMACH smooth pigweed; rate 1×): 95.8%; Biomass (S-AMACH smooth pigweed; rate 1×): 0.14 g; Height (S-AMACH smooth pigweed; rate 10×): 1.0 cm; Biomass Reduction (S-AMACH smooth pigweed; rate 10×): 98.6%; Biomass (S-AMACH smooth pigweed; rate 10×): 0.05 g; Visual Control (S-AMACH smooth pigweed; rate 10×): 99%; Height (S-AMACH smooth pigweed; rate 100×): 1.3 cm; Biomass Reduction (S-AMACH smooth pigweed; rate 100×): 96.7%; Biomass (S-AMACH smooth pigweed; rate 100×): 0.11 g; Visual Control (S-AMACH smooth pigweed; rate 100×): 99%
